{"source": "patent US20160120848A1", "about": "“SPECIFIC CANCER TREATMENT REGIMES WITH GANETESPIB” (SYNTA PHARMACEUTICALS CORP., priority 2013, published 2016)", "test_system": "advanced non-small-cell lung cancer (NSCLC) of non-squamous histology", "test": "Phase I study of ganetespib in combination with docetaxel in advanced NSCLC", "assay_type": "in vivo, patients", "conditions": "ganetespib 150 mg/m^2 in combination with docetaxel (75 or 60 mg/m^2)", "method": "In the first cohort (Cohort 1), patients with advanced solid tumor malignancies are treated with 75 mg/m^2 of ganetespib monotherapy. In the second cohort (Cohort 2), patients with advanced solid tumor malignancies are treated with 150 mg/m^2 of ganetespib monotherapy. In the third cohort (Cohort 3), patients with advanced NSCLC are treated with ganetespib (150 mg/m^2) in combination with docetaxel (75 mg/m^2). In the case of intolerability of the third cohort's combination regimen, in a fourth cohort (Cohort 4), patients with advanced NSCLC are treated with ganetespib (150 mg/m^2) in combination with docetaxel (60 mg/m^2).\nPatients with advanced NSCLC, excluding patients with squamous cell histology, are administered ganetespib and docetaxel in Cohort 3.\nThe purpose of this cohort is to explore the PK and tolerability of ganetespib in combination with docetaxel. Patients enrolled in this cohort receive ganetespib 150 mg/m^2 in combination with docetaxel 75 mg/m^2.\nOn Day 1 of each 3-week treatment cycle, ganetespib and docetaxel are administered as separate 1-hour intravenous infusions. Administration of ganetespib precedes the administration of docetaxel. There is a 1-hour “rest” period following the end of the ganetespib infusion and prior to docetaxel infusion.\nOn Day 15, patients receive 150 mg/m^2 single-agent ganetespib administered via a 1-hour intravenous infusion. […]", "data": [{"smiles": "CC(C)c1cc(-c2n[nH]c(=O)n2-c2ccc3c(ccn3C)c2)c(O)cc1O", "note": "[ganetespib]", "values": [{"measurement": "efficacy", "result": "efficacious"}]}]}
